Experimental data as given in ChEMBL document CHEMBL1201862, “PubChem BioAssay data set” (2004).
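48-hour exposure; five concentrations; linearly interpolated endpoints. GI50 is the concentration that inhibits growth by half.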 The source made the active and inactive calls. Cut-off read from the data, not from the text of the source: active = GI50 up to about 1.1 µM and inactive = higher.

Tests used:
Experiment in all cases: DTP human tumour cell line panel, 48 h
OVCAR-3 = tested on: OVCAR-3
M14 = tested on: M14
OVCAR-4 = tested on: OVCAR-4
DU-145 = tested on: DU-145
UACC-62 = tested on: UACC-62
HL-60 = tested on: HL-60
RXF 393 = tested on: RXF 393
786-0 = tested on: 786-0
SW-620 = tested on: SW-620
SK-MEL-5 = tested on: SK-MEL-5
Malme-3M = tested on: Malme-3M
ACHN = tested on: ACHN
SN12C = tested on: SN12C
NCI-H522 = tested on: NCI-H522
SF-268 = tested on: SF-268
MCF7 = tested on: MCF7
MDA-N = tested on: MDA-N
SK-MEL-2 = tested on: SK-MEL-2
COLO 205 = tested on: COLO 205
HOP-62 = tested on: HOP-62

Measured: GI50

O=C(CC1C=Cc2ccccc2N1C(=O)c1ccccc1)c1ccccc1 (stereo not given)
inactive: OVCAR-3 13.4 µM | M14 20.1 µM | OVCAR-4 34.8 µM | DU-145 50.8 µM | UACC-62 11.7 µM | HL-60 14 µM | RXF 393 47.2 µM | 786-0 29.3 µM | SW-620 33.6 µM | SK-MEL-5 13.3 µM | Malme-3M 21.7 µM | ACHN 35.6 µM | SN12C 27 µM | NCI-H522 13.8 µM | SF-268 27.1 µM | MCF7 29.1 µM | MDA-N 16.1 µM | SK-MEL-2 17.3 µM | COLO 205 19.5 µM | HOP-62 30.6 µM

C[C@]12C=CC(=O)C=C1[C@@H](F)C[C@H]1[C@@H]3CC[C@](O)(C(=O)CO)[C@@]3(C)C[C@H](O)[C@@]12F
inactive: OVCAR-3 > 100 µM | M14 > 100 µM | OVCAR-4 > 100 µM | DU-145 > 100 µM | UACC-62 > 100 µM | HL-60 > 100 µM | RXF 393 > 85.5 µM | 786-0 > 100 µM | SW-620 > 100 µM | SK-MEL-5 > 100 µM | Malme-3M > 100 µM | ACHN > 100 µM | SN12C > 100 µM | NCI-H522 > 100 µM | SF-268 > 100 µM | MCF7 > 100 µM | MDA-N > 100 µM | SK-MEL-2 > 100 µM | COLO 205 > 100 µM | HOP-62 > 100 µM

CNC(=O)N1CN(c2ccccc2)C2(CCN(CCCC3(c4ccc(F)cc4)OCCO3)CC2)C1=O
inactive: OVCAR-3 > 100 µM | M14 > 100 µM | OVCAR-4 > 100 µM | DU-145 > 100 µM | UACC-62 > 100 µM | HL-60 > 100 µM | RXF 393 > 100 µM | 786-0 > 100 µM | SW-620 > 100 µM | SK-MEL-5 > 100 µM | Malme-3M > 100 µM | ACHN > 100 µM | SN12C > 100 µM | NCI-H522 > 100 µM | SF-268 > 100 µM | MCF7 > 100 µM | MDA-N > 100 µM | SK-MEL-2 > 100 µM | COLO 205 > 100 µM | HOP-62 > 100 µM

CCCCc1ccc(Nc2nc3c(ncn3C3CC(O)C(CN=[N+]=[N-])O3)c(=O)[nH]2)cc1 (stereo not given)
inactive: OVCAR-3 > 100 µM | M14 > 100 µM | OVCAR-4 > 100 µM | DU-145 > 100 µM | UACC-62 > 100 µM | HL-60 > 100 µM | RXF 393 > 100 µM | 786-0 > 100 µM | SW-620 > 100 µM | SK-MEL-5 > 100 µM | Malme-3M > 100 µM | ACHN > 100 µM | SN12C > 100 µM | NCI-H522 > 100 µM | SF-268 > 100 µM | MCF7 > 100 µM | MDA-N > 100 µM | SK-MEL-2 > 100 µM | COLO 205 > 100 µM | HOP-62 > 100 µM

C=C(C)C(CC=C(C)C)Cc1c(O)cc(OC)c2c1OC(c1ccc(O)cc1O)C(O)C2=O (stereo not given)
inactive: OVCAR-3 16.7 µM | M14 22 µM | OVCAR-4 16.3 µM | DU-145 18.3 µM | UACC-62 16.2 µM | HL-60 > 100 µM | RXF 393 19 µM | 786-0 16.6 µM | SW-620 16.6 µM | SK-MEL-5 18.5 µM | Malme-3M 17.7 µM | ACHN 20.4 µM | SN12C 20.5 µM | NCI-H522 18.9 µM | SF-268 18.6 µM | MCF7 13.2 µM | MDA-N 14.9 µM | SK-MEL-2 19.5 µM | COLO 205 16.3 µM | HOP-62 17.3 µM
